Usually IC50 stands for the concentration that gives 50% inhibition. The low end stands for inhibition by little substance, the high end for a need for much substance.

The target of one assay is P70S6K (T412E mutant) (Homo sapiens (Human), UniProt P23443, T412E). As to the kind of experiment: P70S6K enzyme assay. The class given is biochemical. The conditions noted are these: 24 μM ATP. The procedure: P70S6K inhibitor compounds were diluted and plated in 96 well plates. A reaction mixture including the following components was then added to the compound plate to initiate the enzyme reaction; P70S6K (3 nM, T412E mutant, Millipore) was mixed with 24 μM ATP in an assay buffer containing 100 mM Hepes (pH 7.5), 5 mM MgCl2, 1 mM DTT, 0.015% Brij and 1 μM of the substrate peptide FITC-AHA-AKRRRLSSLRA-OH (derived from the S6 ribosomal protein sequence, FITC=fluorescein isothiocyanate, AHA=6-aminohexanoic acid). The reaction was incubated for 90 min at 25° C., before the addition of 10 mM EDTA to stop the reaction. The proportion of substrate and product (phosphorylated) peptide was analysed on a Caliper Life Sciences Lab Chip 3000, using a pressure of −1.4 psi, and upstream and downstream voltages of −3000 and −700 respectively. Product peaks were resolved before substrate peaks on the resulting chromatograms.
P70S6K (T412E mutant), sequence (P23443 whole entry T412E): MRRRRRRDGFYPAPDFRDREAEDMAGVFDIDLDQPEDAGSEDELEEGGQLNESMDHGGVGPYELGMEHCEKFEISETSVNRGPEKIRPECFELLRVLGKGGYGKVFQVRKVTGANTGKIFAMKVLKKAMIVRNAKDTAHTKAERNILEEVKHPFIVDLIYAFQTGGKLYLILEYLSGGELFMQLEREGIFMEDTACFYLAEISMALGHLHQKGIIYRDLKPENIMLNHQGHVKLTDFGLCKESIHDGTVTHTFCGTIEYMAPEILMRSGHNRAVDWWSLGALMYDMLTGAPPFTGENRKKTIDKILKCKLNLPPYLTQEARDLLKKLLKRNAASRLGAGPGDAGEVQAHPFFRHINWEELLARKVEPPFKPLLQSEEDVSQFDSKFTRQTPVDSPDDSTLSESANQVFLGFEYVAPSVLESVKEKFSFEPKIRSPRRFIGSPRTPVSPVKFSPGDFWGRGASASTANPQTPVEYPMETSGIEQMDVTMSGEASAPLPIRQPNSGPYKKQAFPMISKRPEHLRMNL

A further assay concerns the target His-AKT (Full Length) (Homo sapiens (Human), UniProt P31749). Briefly: AKT enzyme assay. The conditions noted are these: 160 uM ATP. The class given is biochemical. The procedure:
A TTP Mosquito liquid handling instrument was used to place 125 nl of the appropriate concentration of inhibitor in 100% DMSO (for a dose response curve calculation) into each well of a 384-well plate. To this reaction components were added to a final volume of 12.5 μl: • 0.1 ng/μl His-AKT (Full Length), (Invitrogen, Part # P2999, Lot #641228C). • 160 uM ATP (Fluka, 02055) • 1 mM DTT (Sigma, D0632) • 1 mM MgCl2 (Sigma, M1028) • 1 μM substrate peptide (sequence FITC-AHA-GRPRTSSFAEG-NH2), synthesized by Tufts Peptide Synthesis service. • 100 mM HEPES pH 7.5 (Calbiochem, 391338) • 0.015% Brij-35 (Sigma, B4184)
The reaction was incubated for 90 min at 25 C., and then stopped by the addition of 70 μl of Stop buffer (100 mM HEPES pH 7.5, 0.015% Brij-35, 10 mM EDTA (Sigma, E7889)).
The plate was read on a Caliper LC 3000 in an Off-Chip mobility shift assay format, using the following parameters for a 12-sipper chip: screening pressure −2.3 psi, upstream voltage −500, and downstream voltage −3000. These conditions caused unphosphorylated substrate and phosphorylated product peptide to resolve as separate peaks allowing direct measurement of percentage of conversion of substrate to product.
The percent conversion was plotted against concentration of inhibitor to produce a sigmoidal dose response curve, from which an IC50 was calculated.

His-AKT (Full Length), sequence (P31749 whole entry): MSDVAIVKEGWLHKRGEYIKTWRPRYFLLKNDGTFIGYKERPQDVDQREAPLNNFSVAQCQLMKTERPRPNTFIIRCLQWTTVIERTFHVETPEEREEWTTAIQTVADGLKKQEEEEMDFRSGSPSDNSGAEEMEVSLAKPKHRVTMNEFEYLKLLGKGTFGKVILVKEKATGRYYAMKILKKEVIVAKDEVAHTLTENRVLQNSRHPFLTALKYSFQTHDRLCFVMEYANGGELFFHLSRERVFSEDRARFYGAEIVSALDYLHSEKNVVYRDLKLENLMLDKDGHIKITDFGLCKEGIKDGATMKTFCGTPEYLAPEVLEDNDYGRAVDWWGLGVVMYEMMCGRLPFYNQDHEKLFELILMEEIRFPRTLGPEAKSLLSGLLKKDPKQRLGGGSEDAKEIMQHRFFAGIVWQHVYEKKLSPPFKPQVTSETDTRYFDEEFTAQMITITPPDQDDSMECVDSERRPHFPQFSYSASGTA

With `CCc1c(N)ncnc1N1CCC(O)(c2nc(-c3ccc(F)c(C)c3)cn2CCN2CCC2)CC1` [Compound 46, 1-(6-Amino-5-ethyl-pyrimidin-4-yl)-4-[1-(2-azetidin-1-yl-ethyl)-4-(4-fluoro-3-methyl-phenyl)-1H-imidazol-2-yl]-piperidin-4-ol], the IC50 against P70S6K (T412E mutant) and against His-AKT (Full Length) was 1 to 10 nM in each case.
`Cc1cc(-c2cn(CCN3CCC3)c(C3(O)CCN(c4ncnc(N)c4Cl)CC3)n2)ccc1F` [Compound 47, 1-(6-Amino-5-chloro-pyrimidin-4-yl)-4-[1-(2-azetidin-1-yl-ethyl)-4-(4-fluoro-3-methyl-phenyl)-1H-imidazol-2-yl]-piperidin-4-ol]: the concentration for half-maximal inhibition (IC50) on P70S6K (T412E mutant) and at His-AKT (Full Length) was 1 to 10 nM each time.
In the case of `Cc1cc(-c2cn(CCN3CCC3)c(C3CCN(c4ncnc(N)c4C#N)CC3(F)F)n2)ccc1F` (stereo not shown) [Compound 48, 4-Amino-6-{4-{1-(2-azetidin-1-yl-ethyl)-4-(4-fluoro-3-methyl-phenyl)-1H-imidazol-2-yl}-3,3-difluoro-piperidin-1-yl}-pyrimidine-5-carbonitrile], the concentration for half-maximal inhibition (IC50) at P70S6K (T412E mutant) and against His-AKT (Full Length) was 1 to 10 nM each time.
For `Cc1cc(-c2cn(CCN3CCC3)c(C3CCN(c4ncnc(N)c4C(N)=O)CC3(F)F)n2)ccc1F` (stereo not shown) [Compound 49, 4-Amino-6-{4-[1-(2-azetidin-1-yl-ethyl)-4-(4-fluoro-3-methyl-phenyl)-1H-imidazol-2-yl]-3,3-difluoro-piperidin-1-yl}-pyrimidine-5-carboxylic acid amide], the 50% inhibitory concentration (IC50) against P70S6K (T412E mutant) and against His-AKT (Full Length) was over 10 nM throughout.
Regarding `Cc1cc(-c2cn(CCN3CCC3)c(C3CCN(c4ncnc(N)c4C(C)C)CC3(F)F)n2)ccc1F` (stereo not shown) [Compound 50, 6-{4-[1-(2-Azetidin-1-yl-ethyl)-4-(4-fluoro-3-methyl-phenyl)-1H-imidazol-2-yl]-3,3-difluoro-piperidin-1-yl}-5-isopropyl-pyrimidin-4-ylamine], the IC50 against P70S6K (T412E mutant) and on His-AKT (Full Length) was 1 to 10 nM in each case.
